Active and inactive are the calls of the source. The rule behind the calls is not given here.
Legend:
NCI-H460 [1] = assay: Cytotoxicity against mitoxantrone-selected ABCG2-overexpressing human NCI-H460/MX20 cells assessed as reduction in cell viability measured after 72 hrs by CCK8 assay; type: ADME, cell-based; conditions: NCI-H460, 72 h
ABCG2 [2] = assay: Resistance factor, ratio of IC50 for mitoxantrone-selected ABCG2-overexpressing human NCI-H460/MX20 cells to IC50 for human NCI-H460 cells; type: ADME; conditions: read-out: Ratio IC50
ABCG2 [3] = assay: Resistance factor, ratio of IC50 for ABCG2-overexpressing human HEK293/482R cells to IC50 for human HEK293 cells; type: ADME; conditions: read-out: Ratio IC50
NCI-H460 [4] = assay: Chemo-sensitizing activity against mitoxantrone-selected ABCG2-overexpressing human NCI-H460/MX20 cells assessed as reversal fold at 2 uM measured after 72 hrs in presence of topotecan by CCK8 assay relative to control; type: functional
NCI-H460 [5] = assay: Chemo-sensitizing activity against human NCI-H460 cells assessed as reversal fold at 1 uM measured after 72 hrs in presence of SN-38 by CCK8 assay relative to control; type: functional
NCI-H460 [6] = assay: Chemo-sensitizing activity against mitoxantrone-selected ABCG2-overexpressing human NCI-H460/MX20 cells assessed as reversal fold at 5 uM measured after 72 hrs in presence of SN-38 by CCK8 assay relative to control; type: functional
A549 [7] = assay: Chemo-sensitizing activity against becatecarin-selected ABCG2-overexpressing human A549/Bec150 cells assessed as reversal fold at 1 uM measured after 72 hrs in presence of mitoxantrone by CCK8 assay relative to control; type: functional
A549 [8] = assay: Chemo-sensitizing activity against becatecarin-selected ABCG2-overexpressing human A549/Bec150 cells assessed as reversal fold at 2 uM measured after 72 hrs in presence of mitoxantrone by CCK8 assay relative to control; type: functional
A549 [9] = assay: Chemo-sensitizing activity against human A549 cells assessed as reversal fold at 2 uM measured after 72 hrs in presence of topotecan by CCK8 assay relative to control; type: functional
A549 [10] = assay: Chemo-sensitizing activity against becatecarin-selected ABCG2-overexpressing human A549/Bec150 cells assessed as reversal fold at 1 uM measured after 72 hrs in presence of topotecan by CCK8 assay relative to control; type: functional
A549 [11] = assay: Chemo-sensitizing activity against human A549 cells assessed as reversal fold at 5 uM measured after 72 hrs in presence of SN-38 by CCK8 assay relative to control; type: functional
A549 [12] = assay: Chemo-sensitizing activity against becatecarin-selected ABCG2-overexpressing human A549/Bec150 cells assessed as reversal fold at 5 uM measured after 72 hrs in presence of SN-38 by CCK8 assay relative to control; type: functional
HEK293 [13] = assay: Chemo-sensitizing activity against human HEK293 cells assessed as reversal fold at 1 uM measured after 72 hrs in presence of topotecan by CCK8 assay relative to control; type: functional
HEK293 [14] = assay: Chemo-sensitizing activity against ABCG2-overexpressing human HEK293 cells assessed as reversal fold at 1 uM measured after 72 hrs in presence of topotecan by CCK8 assay relative to control; type: functional
HEK293 [15] = assay: Chemo-sensitizing activity against ABCG2-overexpressing human HEK293 cells assessed as reversal fold at 5 uM measured after 72 hrs in presence of topotecan by CCK8 assay relative to control; type: functional
HEK293 [16] = assay: Chemo-sensitizing activity against human HEK293 cells assessed as reversal fold at 1 uM measured after 72 hrs in presence of SN-38 by CCK8 assay relative to control; type: functional
HEK293 [17] = assay: Chemo-sensitizing activity against human HEK293 cells assessed as reversal fold at 2 uM measured after 72 hrs in presence of SN-38 by CCK8 assay relative to control; type: functional
OVCAR-8 [18] = assay: Chemo-sensitizing activity against human OVCAR-8 cells assessed as reversal fold at 5 uM measured after 72 hrs in presence of vincristine by CCK8 assay relative to control; type: functional
NCI/ADR-RES [19] = assay: Chemo-sensitizing activity against ABCB1-overexpressing human NCI/ADR-RES cells assessed as reversal fold at 1 uM measured after 72 hrs in presence of vincristine by CCK8 assay relative to control; type: functional
OVCAR-8 [20] = assay: Chemo-sensitizing activity against human OVCAR-8 cells assessed as reversal fold at 5 uM measured after 72 hrs in presence of paclitaxel by CCK8 assay relative to control; type: functional
NCI/ADR-RES [21] = assay: Chemo-sensitizing activity against ABCB1-overexpressing human NCI/ADR-RES cells assessed as reversal fold at 2 uM measured after 72 hrs in presence of colchicine by CCK8 assay relative to control; type: functional
KB 3-1 [22] = assay: Chemo-sensitizing activity against human KB 3-1 cells assessed as reversal fold at 1 uM measured after 72 hrs in presence of vincristine by CCK8 assay relative to control; type: functional
KB-V1 [23] = assay: Chemo-sensitizing activity against ABCB1-overexpressing human KB-V1 cells assessed as reversal fold at 1 uM measured after 72 hrs in presence of vincristine by CCK8 assay relative to control; type: functional
KB 3-1 [24] = assay: Chemo-sensitizing activity against human KB 3-1 cells assessed as reversal fold at 2 uM measured after 72 hrs in presence of paclitaxel by CCK8 assay relative to control; type: functional
KB-V1 [25] = assay: Chemo-sensitizing activity against ABCB1-overexpressing human KB-V1 cells assessed as reversal fold at 5 uM measured after 72 hrs in presence of paclitaxel by CCK8 assay relative to control; type: functional
HEK293 [26] = assay: Chemo-sensitizing activity against ABCB1-overexpressing human HEK293/MDR19 cells assessed as reversal fold at 1 uM measured after 72 hrs in presence of vincristine by CCK8 assay relative to control; type: functional
HEK293 [27] = assay: Chemo-sensitizing activity against ABCB1-overexpressing human HEK293/MDR19 cells assessed as reversal fold at 5 uM measured after 72 hrs in presence of vincristine by CCK8 assay relative to control; type: functional
HEK293 [28] = assay: Chemo-sensitizing activity against human HEK293 cells assessed as reversal fold at 5 uM measured after 72 hrs in presence of paclitaxel by CCK8 assay relative to control; type: functional
HEK293 [29] = assay: Chemo-sensitizing activity against ABCB1-overexpressing human HEK293/MDR19 cells assessed as reversal fold at 1 uM measured after 72 hrs in presence of paclitaxel by CCK8 assay relative to control; type: functional
HEK293 [30] = assay: Chemo-sensitizing activity against ABCB1-overexpressing human HEK293/MDR19 cells assessed as reversal fold at 5 uM measured after 72 hrs in presence of paclitaxel by CCK8 assay relative to control; type: functional
NCI-H460 [31] = assay: Effect on ABCG2 protein expression in mitoxantrone-selected ABCG2-overexpressing human NCI-H460/MX20 cells at 1 to 5 uM incubated for 72 hrs by immunoblot analysis; type: functional, cell-based; conditions: dose 1-5 µM
[32] = Cytotoxicity against human A549 cells assessed as cell viability at 1 to 5 uM measured after 72 hrs by CCK8 assay; type: cell-based; conditions: dose 1-5 µM, read-out: Activity
[33] = Cytotoxicity against ABCG2-overexpressing human HEK293/482R cells assessed as cell viability at 1 to 5 uM measured after 72 hrs by CCK8 assay; type: ADME, cell-based; conditions: ABCG2-overexpressing HEK293/482R cells, dose 1-5 µM, read-out: Activity

Molecule `C=C(C)[C@H](CC=C(C)C)Cc1c(O)cc(O)c2c1O[C@H](c1ccc(O)cc1O)CC2=O` [SOPHORAFLAVANONE G] has an IC50 (NCI-H460 [1]) of 22.1 µM, a selectivity ratio (ABCG2 [2]) of 0.8 and a selectivity ratio (ABCG2 [3]) of 1.4. The “fold change (FC)” value (NCI-H460 [4]) was 7.2, the “fold change (FC)” value (NCI-H460 [5]) was 1.3 and the “fold change (FC)” value (NCI-H460 [6]) was 10.1. The “fold change (FC)” value (A549 [7]) was 2.7, the “fold change (FC)” value (A549 [8]) was 5.9 and the “fold change (FC)” value (A549 [9]) was 1.2. For the same molecule, the “fold change (FC)” value (A549 [10]) was 1.7, the “fold change (FC)” value (A549 [11]) was 1.2 and the “fold change (FC)” value (A549 [12]) was 7.7. For the same molecule, the “fold change (FC)” value (HEK293 [13]) was 0.9, the “fold change (FC)” value (HEK293 [14]) was 1.7 and the “fold change (FC)” value (HEK293 [15]) was 5. For the same molecule, the “fold change (FC)” value (HEK293 [16]) was 1, the “fold change (FC)” value (HEK293 [17]) was 0.9 and the “fold change (FC)” value (OVCAR-8 [18]) was 1.7. For the same molecule, the “fold change (FC)” value (NCI/ADR-RES [19]) was 1, the “fold change (FC)” value (OVCAR-8 [20]) was 1.1 and the “fold change (FC)” value (NCI/ADR-RES [21]) was 0.8. The “fold change (FC)” value (KB 3-1 [22]) was 1.1, the “fold change (FC)” value (KB-V1 [23]) was 1 and the “fold change (FC)” value (KB 3-1 [24]) was 1.1. The “fold change (FC)” value (KB-V1 [25]) was 1.6, the “fold change (FC)” value (HEK293 [26]) was 0.7 and the “fold change (FC)” value (HEK293 [27]) was 2.2. For the same molecule, the “fold change (FC)” value (HEK293 [28]) was 1.2, the “fold change (FC)” value (HEK293 [29]) was 0.8 and the “fold change (FC)” value (HEK293 [30]) was 1.3. For the same molecule, the Activity (NCI-H460 [31]) was “inactive”, the viability at 72 h, up to 5 µM [32] was over 90% and the viability at 72 h, up to 5 µM [33] was over 90%.

From ChEMBL document CHEMBL5055643, “Sophoraflavanone G Resensitizes ABCG2-Overexpressing Multidrug-Resistant Non-Small-Cell Lung Cancer Cells to Chemotherapeutic Drugs” (J Nat Prod, 2021)
